Experiments:
AMPA receptors = assay: field EPSP response in rat hippocampal slices; type: cell-based; settings: for EPSP response, in words: comment on Table 1
Procedure: Hippocampal tissue slices were perfused with artificial cerebrospinal fluid containing increasing concentrations of test compound at 15-30 minute intervals separated by perfusion with ACSF without the test compound, and the percent increases in EPSP amplitude and half-width before and after compound perfusion were determined.
The physiological effects of compounds in accordance with the invention can be tested in vitro with slices of rat hippocampus according to the following procedure. Excitatory responses (field EPSPs) are measured in hippocampal slices, which are maintained in a recording chamber continuously perfused with artificial cerebrospinal fluid (ACSF). During a 15-30 minute interval, the perfusion medium is switched to one containing various concentrations of the test compounds. Responses collected immediately before and at the end of drug perfusion were superimposed in order to calculate both the percent increase in EPSP amplitude and percent increase in the width of the response at one-half the peak height (half-width). An increase in either measure, that is, of the amplitude or half-width, can be used as an indicator of beneficial therapeutic activity.
To conduct these tests, the hippocampus was removed from anesthetized, 2 month old Sprague-Dawley rats and tissue slices (400 micrometers thick) were prepared and maintained in an interface chamber at 35° C. using conventional techniques [see, for example, Dunwiddie and Lynch, J. Physiol. […] A bipolar nichrome stimulating electrode was positioned in the dendritic layer (stratum radiatum) of the hippocampal subfield CA1 close to the border of subfield CA3.
Current pulses (0.1 msec) through the stimulating electrode activate a population of the Schaffer-commissural (SC) fibers, which arise from neurons in the subdivision CA3 and terminate in synapses on the dendrites of CA1 neurons. Activation of these synapses causes them to release the transmitter glutamate. Glutamate binds to the post-synaptic AMPA receptors which then transiently open an associated ion channel and permit a sodium current to enter the postsynaptic cell. This current results in a voltage in the extracellular space (the field excitatory post-synaptic potential or field "EPSP") which is recorded by a high impedance recording electrode positioned in the middle of the stratum radiatum of CA1.
For the experiments summarized in Table 1, the intensity of the stimulation current was adjusted to produce half-maximal EPSPs (typically about 1.5-2.0 mV). Paired stimulation pulses were given every 40 sec with an interpulse interval of 200 msec (see below). The field EPSPs of the second response were digitized and analyzed to determine amplitude, half-width, and response area. If the responses were stable for 15-30 minutes (baseline), test compounds were added to the perfusion lines for a period of about 20 minutes. The perfusion was then changed back to regular ACSF.
Paired-pulse stimulation was used because stimulation of the SC fibers, in part, activates interneurons that generate an inhibitory postsynaptic potential (IPSP) in the pyramidal cells of CA1. This feed forward IPSP typically sets in after the EPSP reaches its peak. It accelerates the repolarization and shortens the decay phase of the EPSP, and thus could partially mask the effects of the test compounds. One of the relevant features of the feed-forward IPSP is that it can not be reactivated for several hundred milliseconds following a stimulation pulse. This phenomenon can be employed to advantage to eliminate IPSP by delivering paired pulses separated by 200 milliseconds and using the second ("primed") response for data analysis.

rats = assay: 8-arm radial maze memory test; type: in vivo, rat; settings: for Maze MED (Minimum Effective Dose) / minimal effective dose: threshold dose for enhancing memory in rats, 8-arm radial maze; for minimal effective dose: Rattus norvegicus, read-out: Maze MED (Minimum Effective Dose)
Procedure: The right bar of each pair represents the results for the same animals administered vehicle alone on alternate days of testing.
All of the data in FIG. 1 were obtained using the same group of ten rats. […] In other words, vehicle alone was administered to the group on days 1, 3 and 5, and compound at a selected dosage was administered on days 2 and 4. […] Error bars indicate the standard error of the mean (SEM). The asterisks (*) in the figure indicate data wherein p<0.05 by the paired t test.

[1] = peripheral administration in humans; Guenzi and Zanetti 1990; cited from earlier work
brain AMPA receptors = settings: metabolite of aniracetam; cited from earlier work
[2] = compound concentration 30 μM, rat hippocampal slice, field CA1
[3] = compound concentration 100 μM, rat hippocampal slice, field CA1

## O=C1c2cc3c(cc2OC2OCCN12)OCO3 (racemic) [Compound 1, 7,8-Dihydro-5aH, 10H-1,3-dioxolo[4,5-g]oxazolo[2,3-b][1,3]benzoxazin-10-one]
AMPA receptors; [2]
  EPSP Response (percent increase in amplitude of the EPSP response): 34%
AMPA receptors; compound concentration 50 μM, resolved enantiomers of compound 1
  EPSP Response (percent increase in amplitude of the EPSP response): 80%
rats; FIG. 1, 0.03, 0.1 and 0.5 mg/kg versus vehicle, ten rats
  average total number of errors: significant, dose-dependent reduction
rats; FIG. 1, 0.03, 0.1 and 0.5 mg/kg versus vehicle, ten rats, retention phase
  average number of correct choices before the first error: significant, dose-dependent increase
rats
  Maze MED (Minimum Effective Dose): 0.05 mg/kg

## O=C1c2cc3c(cc2OC2OCCN12)OCO3 (single isomer, unassigned) [Column Fraction 1]
AMPA receptors; compound concentration 50 μM, resolved enantiomers of compound 1, listed as first-eluting enantiomer
  EPSP Response (percent increase in amplitude of the EPSP response): 80%
rats; listed as active enantiomer of compound 1
  Maze MED (Minimum Effective Dose): 0.01 mg/kg

## O=C1c2cc3c(cc2OC2OCCN12)OCO3 (single isomer, unassigned) [Column Fraction 2]
AMPA receptors; compound concentration 50 μM, resolved enantiomers of compound 1, listed as second-eluting enantiomer
  EPSP Response (percent increase in amplitude of the EPSP response): does not detectably change
rats; enantiomers of compound 1, maze test
  MED of less active enantiomer relative to active enantiomer: 50 fold
rats; listed as less active enantiomer
  Maze MED (Minimum Effective Dose): 0.5 mg/kg

## CC1CN2C(=O)c3cc4c(cc3OC2O1)OCO4 (single isomer, unassigned) [Compound 5.1, 7,8-Dihydro-7-methyl-5aH, 10H-1,3-dioxolo[4,5-g]oxazolo[2,3-b][1,3]benzoxazin-10-one]
AMPA receptors; [2]
  EPSP Response (percent increase in amplitude of the EPSP response): 14%

## CC1CN2C(=O)c3cc4c(cc3OC2O1)OCO4 (single isomer, unassigned) [Compound 5.2, 7,8-Dihydro-7-methyl-5aH, 10H-1,3-dioxolo[4,5-g]oxazolo[2,3-b][1,3]benzoxazin-10-one]
AMPA receptors; [2]
  EPSP Response (percent increase in amplitude of the EPSP response): 10%

## O=C1c2cc3c(cc2OC2CCCN12)OCO3 (centres unmarked) [Compound 1c, reference compound]
AMPA receptors; [3]
  EPSP Response (percent increase in amplitude of the EPSP response): 25%
rats
  minimal effective dose: 1 mg/kg

## O=C(NCCO)c1cc2c(cc1O)OCO2 [Compound 1i, 2-(2-Hydroxy-4,5-methylenedioxybenzamido)ethanol]
AMPA receptors
  EPSP response, in words: increased EPSP response
AMPA receptors; [3]
  EPSP Response (percent increase in amplitude of the EPSP response): 8%

## O=C1c2cc3c(cc2OC2OCCN12)OCCO3 (centres unmarked) [Compound 2, 8,9-Dihydro-6aH, 11H-1,4-dioxan[2,3-g]oxazolo[2,3-b][1,3]benzoxazin-11-one]
AMPA receptors; compound concentration 5 μM, rat hippocampal slice, field CA1
  EPSP Response (percent increase in amplitude of the EPSP response): 35%
rats
  minimal effective dose: 0.01 mg/kg

## O=C1c2cc3c(cc2OC2CCCN12)OCCO3 (centres unmarked) [Compound 2c, reference compound]
AMPA receptors; compound concentration >30 μM, rat hippocampal slice, field CA1
  EPSP Response (percent increase in amplitude of the EPSP response): 25%
rats
  minimal effective dose: 0.1 mg/kg

## CC1(C)Oc2cc3c(cc2O1)C(=O)N1CCOC1O3 (centres unmarked) [Compound 3, 7,8-Dihydro-2,2-dimethyl-5aH, 10H-1,3-dioxolo[4,5-g]oxazolo[2,3-b][1,3]benzoxazin-10-one]
AMPA receptors; [2]
  EPSP Response (percent increase in amplitude of the EPSP response): 33%

## O=C1c2cc3c(cc2OC2SCCN12)OCO3 (centres unmarked) [Compound 4, 7,8-Dihydro-5aH, 10H-1,3-dioxolo[4,5-g]thiazolo[2,3-b][1,3]benzoxazin-10-one]
AMPA receptors
  EPSP response, in words: About the same activity
AMPA receptors; [2]
  EPSP Response (percent increase in amplitude of the EPSP response): 20%

## CC1COC2Oc3cc4c(cc3C(=O)N12)OCO4 (centres unmarked) [Compound 6, 7,8-Dihydro-8-methyl-5aH, 10H-1,3-dioxolo[4,5-g]oxazolo[2,3-b][1,3]benzoxazin-10-one]
AMPA receptors; [3]
  EPSP Response (percent increase in amplitude of the EPSP response): 10%

## O=C1c2cc3c(cc2OC2OCCCN12)OCO3 (centres unmarked) [Compound 7, 8,9-Dihydro-5aH, 7H, 10H-1,3-dioxolo[4,5-g][1,3]oxazino[2,3-b][1,3]benzoxazin-11-one]
AMPA receptors; [2]
  EPSP Response (percent increase in amplitude of the EPSP response): 15%

## O=C1c2cc3c(cc2OC2CCCCN12)OCO3 (centres unmarked) [Compound 7c, reference compound]
AMPA receptors; compound concentration 300 μM, rat hippocampal slice, field CA1
  EPSP Response (percent increase in amplitude of the EPSP response): 25%

## CC12OCCN1C(=O)c1cc3c(cc1O2)OCO3 (centres unmarked) [Compound 8, 7,8-Dihydro-5a-methyl-10H-1,3-dioxolo[4,5-g]oxazolo[2,3-b][1,3]benzoxazin-10-one]
AMPA receptors; [3]
  EPSP Response (percent increase in amplitude of the EPSP response): 8%

## COc1ccc(C(=O)N2CCCC2=O)cc1 [aniracetam, N-anisoyl-2-pyrrolidinone]
[1]
  fraction of drug converted to anisoyl-GABA: about 80%

## COc1ccc(C(=O)NCCCC(=O)O)cc1 [anisoyl-GABA]
Brain AMPA receptors
  aniracetam-like effects: only weak aniracetam-like effects
